The text below walks through data of US20230219951A1, “PYRIDINE-PYRIMIDINE DERIVATIVE, PREPARATION METHOD THEREFOR AND PHARMACEUTICAL USE THEREOF” (Jiangsu Hengrui Pharmaceuticals Co., Ltd., priority 2020, published 2023).

Where only a bound is given, the exact number is not on record here.

The target in one series is T1, CYP2C19 (Homo sapiens, UniProt P33261).
T1 construct: tissue Corning Gentest 452161; host or cells: human liver microsomes
In words: Human liver microsome CYP450 inhibition, CYP2C19 (S)-mephenytoin 4'-hydroxylation. Conditions: human liver microsomes, (S)-mephenytoin probe substrate. The class given is in vitro ADME. As to the method: The inhibition effect of the compounds of the present disclosure on the human liver microsome CYP450 enzyme was determined by the following method:
An appropriate amount of human liver microsome stock solution (20 mg/mL) was diluted to obtain a 0.25 mg/mL microsome solution with 7.5 mM MgC12 solution for later use (prepared right before use).
b. An appropriate amount of the stock solution was precisely pipetted, and diluted into series solution I at the concentrations of 10 mM, 3 mM, 1 mM, 0.3 mM, 0.03 mM and 0.003 mM with an appropriate amount of DMSO solution. An appropriate amount of the above series solution I was precisely pipetted, and diluted to obtain series solution II at the concentrations of 3 mM, 1 mM, 0.3 mM, 0.1 mM, 0.03 mM, 0.003 mM and 0.0003 mM with an appropriate amount of acetonitrile. An appropriate amount of the above series solution II was precisely pipetted, and diluted with PBS to obtain a working solution at the concentrations of 150 μM, 50 μM, 15 μM, 5μM, 1.5 μM, 0.15 μM and 0.015 μM for later use.
a. […]
The values were calculated by Graphpad Prism to obtain the IC50 values for the inhibition of drugs on CYP2C19 (S)-mephenytoin 4′-hydroxylation and CYP3A4M midazolam 1-hydroxylation metabolism in human liver microsomes, as shown in Table 6.

Series [1] is described as follows: Pharmacokinetic evaluation in mice. The class given is in vivo. Conditions: female, mouse, plasma, po, C57 mice, intragastric administration, 2 mg/kg. How it is done: The drug concentration in the plasma of the test animals (mice) at different time points after intragastric administration (i.g.) of compound 18-p1 was determined by using an LC/MS/MS method. The pharmacokinetic behavior of the compound of the present disclosure in mice was studied and its pharmacokinetic profile was evaluated.
Nine C57 mice, female, purchased from Beijing Vital River Laboratory Animal Technology Co., Ltd., with animal production license number of SOCK (Shanghai) 2017-0005.
An amount of compound 18-p1 was weighed, dissolved with 5% by volume of DMSO and 5% tween 80 (Shanghai Titan Scientific Co., Ltd.), and then prepared into a 0.1 mg/mL clear solution with 90% normal saline.
Intragastric administration: the mice were intragastrically administered at a dose of 2.0 mg/kg and a volume of 20.0 mL/kg.
The compound 18-p1 was administered intragastrically to mice, and 0.1 mL of blood was collected from the orbit before administration and 0.25 h, 0.5 h, 1.0 h, 2.0 h, 4.0 h, 6.0 h, 8.0 h, 11.0 h and 24.0 h after administration. The blood was placed in an EDTA-K2 anticoagulation tube and centrifuged at 10,000 rpm for 1 min (4° C.), and plasma was separated out within 1 h and then stored at −20° C. for testing. The process from blood sampling to centrifugation was performed under an ice bath.
The content of the test compounds at different concentrations in plasma of mice after administration was determined: 10 μL of plasma of mice at each time point after administration was taken, and 200 μL of methanol (containing an internal standard solution camptothecin, 100 ng/mL) was added; the mixture was vortexed for 1 min, and centrifuged for 10 min (18,000 r/min). 3 μL of supernatant was taken from the plasma sample for LC/MS/MS analysis.

The test system of a further series is H358 cells. Briefly: Inhibition of proliferation of H358 cells (CellTiter-Glo 3D). It is filed as cell-based. Conditions: Homo sapiens, NCI-H358, low adsorption plate, 120 h. Put shortly:
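H358 cells at 1500/well in low-adsorption plates (RPMI, 10% FBS), centrifuged and grown overnight, then exposed 120 h at 37 °C to 9 concentrations, 5-fold dilutions from 10 μM; 0.1% DMSO blank. Luminescence read with CellTiter-Glo 3D; IC50 calculated from the curves.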
In general terms: Cellular ATP, detected with luciferase, serves as a proxy for viable cell number.

T1 sequence (P33261 whole entry): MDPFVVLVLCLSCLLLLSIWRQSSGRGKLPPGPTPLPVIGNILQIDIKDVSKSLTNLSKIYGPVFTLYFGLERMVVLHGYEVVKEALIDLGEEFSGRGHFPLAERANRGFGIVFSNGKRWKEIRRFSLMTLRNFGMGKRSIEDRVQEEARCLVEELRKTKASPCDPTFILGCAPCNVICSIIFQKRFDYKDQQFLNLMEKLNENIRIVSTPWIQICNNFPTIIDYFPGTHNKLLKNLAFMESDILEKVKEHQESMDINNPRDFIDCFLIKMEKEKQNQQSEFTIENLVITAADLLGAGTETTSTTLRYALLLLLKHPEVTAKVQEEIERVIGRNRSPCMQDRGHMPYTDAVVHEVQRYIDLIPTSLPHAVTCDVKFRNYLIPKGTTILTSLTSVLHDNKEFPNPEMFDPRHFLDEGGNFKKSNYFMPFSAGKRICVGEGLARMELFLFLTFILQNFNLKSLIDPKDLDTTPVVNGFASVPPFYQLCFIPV

Usually IC50 stands for the concentration that inhibits the measured activity by half. High values mean a need for much substance, low ones inhibition by little substance. What is called half-life is the time in which the quantity being followed falls by half. In the case of `Cc1nc(N[C@H](C)c2cccc(C(F)F)c2F)c2cc([C@]3(O)CC[C@@H](O)CC3)c(=O)[nH]c2n1` [Example 18-p1, 4-(((R)-1-(3-(difluoromethyl)-2-fluorophenyl)ethyl)amino)-6-((1s,4S)-1,4-dihydroxycyclohexyl)-2-methylpyrido[2,3-d]pyrimidin-7(8H)-one], the IC50 against CYP2C19 was greater than 30 µM; in the series on H358 cells, 72 nM. The Vd/F in series [1] (read-out: Apparent distribution volume Vz/F) came out at 23.4 L/kg. For the same compound, the AUC(0-t) in series [1] (read-out: Area under curve AUC0-t) came to 146 ng·h/mL. In addition, the CL/F in series [1] (read-out: Clearance CLz/F) was 225 mL/min/kg. In addition, the half-life in series [1] (read-out: Half-life T½ (converted)) was 1.2 h. Besides, in series [1] (read-out: Plasma concentration Cmax), the Cmax came out at 56.7 ng/mL.
